As a reminder, the IC50 is the concentration that inhibits the measured activity by half.

For four compounds, IC50 results are on record in BindingDB's records for doi:10.1021/jm9707030 (Boehringer Ingelheim Pharmaceuticals, 1998).

Test [1] deals with T1, Gag-Pol polyprotein [600-1027,R876K]/[600-1155] (Human immunodeficiency virus 1, UniProt P03366, R876K).
T1 construct: 600-1027; 600-1155
The test can be described thus: HIV-1 RT Assay.

Test [2] has as its target T2, Gag-Pol polyprotein [600-1027,Y780C]/[600-1155,Y780C] (Human immunodeficiency virus 1, UniProt P03366, Y780C).
T2 construct: 600-1027; 600-1155
Kind of test: HIV-1 RT Assay. Particulars: pH 7.8; 22 °C.

Each structure is given as a SMILES string.

In test [1], `CCN1c2ncc(COc3cc[n+]([O-])c(C)c3)cc2C(=O)N(C)c2ccc(Cl)nc21` [2-Chloro-5,11-dihydro-11-ethyl-5-methyl-8-((4-(2-methyl-1-oxo-pyridinyl))oxy)methyl-6H-dipyrido[3,2-b:2 ,3-e][1,4]diazepin-6-one] showed an IC50 of 100 nM. This lies in the sub-micromolar range.

For the compound `CCN1c2ncc(COc3ccccc3O)cc2C(=O)N(C)c2ccc(Cl)nc21` [5-chloro-2-ethyl-13-(2-hydroxyphenoxymethyl)-9-methyl-2,4,9,15-tetraazatricyclo[9.4.0.0^{3,8}]pentadeca-1(11),3,5,7,12,14-hexaen-10-one], in test [1] (pH 7.8, 22 °C), the IC50 was 100 nM.

With `CCN1c2ncc(CS(=O)(=O)c3ccccc3)cc2C(=O)N(C)c2ccc(Cl)nc21` [13-[(benzenesulfonyl)methyl]-5-chloro-2-ethyl-9-methyl-2,4,9,15-tetraazatricyclo[9.4.0.0^{3,8}]pentadeca-1(15),3(8),4,6,11,13-hexaen-10-one], it took 100 nM to reach half-maximal inhibition in test [1] (IC50).

In test [2], `CCN1c2ncc(CNc3cccc(N)c3)cc2C(=O)N(C)c2ccc(Cl)nc21` [13-{[(3-aminophenyl)amino]methyl}-5-chloro-2-ethyl-9-methyl-2,4,9,15-tetraazatricyclo[9.4.0.0^{3,8}]pentadeca-1(11),3,5,7,12,14-hexaen-10-one] returned an IC50 of 100 nM. That is a sub-micromolar value.
